# Test results published in US20110178396A1, “Nicotinamide Derivatives” (CRC FOR BIOMEDICAL IMAGING DEVELOPMENT LTD., priority 2008, published 2011).
# Tested on: B16F0 melanoma tumour
# Assay: Biodistribution in B16 melanoma bearing mice
# Assay type: in vivo, C57BL/6J mice
# Conditions: C57BL/6J mice; for Organ distribution Intestine / Organ distribution Liver / Organ distribution Spleen / Organ distribution Stomach / Organ distribution Thyroid / Organ distribution Tumour: B16F0 tumour, mean ± S.D.; for Organ distribution Intestine / Organ distribution Liver / Organ distribution Spleen / Organ distribution Stomach / Organ distribution Thyroid / Organ distribution Tumour / Uptake Lung / uptake BLOOD / uptake BRAIN / uptake HEART / uptake KIDNEY / uptake LIVER / uptake TUMOUR: n = 5; for tumour standardized uptake value (SUVt) / Uptake Lung / uptake BLOOD / uptake BRAIN / uptake HEART / uptake KIDNEY / uptake LIVER / uptake TUMOUR: B16 tumour; for Uptake Lung / uptake BLOOD / uptake BRAIN / uptake HEART / uptake KIDNEY / uptake LIVER / uptake TUMOUR: mean ± SD
# How it was run: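 B16F0 tumours in C57BL/6J mice (day 11) and A375 xenografts in BALB/c nude mice (day 25), subcutaneous left flank. Radiotracer given i.v. by tail vein (18F 0.5–1.5 MBq; 123I 0.37–0.74 MBq); n=5 per time point, 15 min–6 h (18F) or 1–72 h (123I). Organs γ-counted as % ID/g.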
compound,measurement,setting,value
"CCN(CC)CCNC(=O)c1cncc(I)c1 [[^123I]11, N-(2-(diethylamino)ethyl)-5-iodonicotinamide]",Organ distribution Intestine,1 h,15 ± 2 % ID/organ
same,Organ distribution Liver,1 h,1.8 ± 0.3 % ID/organ
same,Organ distribution Spleen,1 h,0.16 ± 0.16 % ID/organ
same,Organ distribution Stomach,1 h,2.0 ± 0.2 % ID/organ
same,Organ distribution Thyroid,1 h,0.37 ± 0.07 % ID/organ
same,Organ distribution Tumour,1 h,1.3 ± 0.3 % ID/organ
same,Organ distribution Intestine,3 h,5 ± 2 % ID/organ
same,Organ distribution Liver,3 h,0.82 ± 0.08 % ID/organ
same,Organ distribution Spleen,3 h,0.06 ± 0.05 % ID/organ
same,Organ distribution Stomach,3 h,1.3 ± 0.3 % ID/organ
same,Organ distribution Thyroid,3 h,1.1 ± 0.3 % ID/organ
same,Organ distribution Tumour,3 h,1.0 ± 0.4 % ID/organ
same,Organ distribution Intestine,6 h,2.8 ± 0.4 % ID/organ
same,Organ distribution Spleen,6 h,0.05 ± 0.04 % ID/organ
same,Organ distribution Stomach,6 h,1.2 ± 0.2 % ID/organ
same,Organ distribution Thyroid,6 h,1.8 ± 1.0 % ID/organ
same,Organ distribution Tumour,6 h,1.1 ± 0.3 % ID/organ
same,Organ distribution Intestine,24 h,0.10 ± 0.02 % ID/organ
same,Organ distribution Liver,24 h,0.12 ± 0.01 % ID/organ
same,Organ distribution Spleen,24 h,0.01 ± 0.03 % ID/organ
same,Organ distribution Stomach,24 h,0.04 ± 0.01 % ID/organ
same,Organ distribution Thyroid,24 h,1.0 ± 0.3 % ID/organ
same,Organ distribution Tumour,24 h,0.7 ± 0.1 % ID/organ
same,Organ distribution Intestine,48 h,0.06 ± 0.01 % ID/organ
same,Organ distribution Liver,48 h,0.06 ± 0.01 % ID/organ
same,Organ distribution Spleen,48 h,0.00 ± 0.00 % ID/organ
same,Organ distribution Stomach,48 h,0.02 ± 0.01 % ID/organ
same,Organ distribution Thyroid,48 h,1.4 ± 0.3 % ID/organ
same,Organ distribution Tumour,48 h,0.7 ± 0.4 % ID/organ
same,Organ distribution Intestine,72 h,0.04 ± 0.01 % ID/organ
same,Organ distribution Liver,72 h,0.04 ± 0.01 % ID/organ
same,Organ distribution Spleen,72 h,0.01 ± 0.01 % ID/organ
same,Organ distribution Stomach,72 h,0.01 ± 0.01 % ID/organ
same,Organ distribution Thyroid,72 h,1.0 ± 0.6 % ID/organ
same,Organ distribution Tumour,72 h,0.3 ± 0.1 % ID/organ
same,tumour standardized uptake value (SUVt),1 h,3.7 ± 1.0
same,Uptake Lung,1 h,1.4 ± 0.2 % ID/g
same,uptake BLOOD,1 h,1.21 ± 0.17 % ID/g
same,uptake BRAIN,1 h,0.14 ± 0.02 % ID/g
same,uptake HEART,1 h,0.8 ± 0.1 % ID/g
same,uptake KIDNEY,1 h,1.8 ± 0.5 % ID/g
same,uptake LIVER,1 h,1.9 ± 0.3 % ID/g
same,uptake TUMOUR,1 h,7.8 ± 1.7 % ID/g
same,tumour standardized uptake value (SUVt),3 h,7.4 ± 1.6
same,Uptake Lung,3 h,0.75 ± 0.07 % ID/g
same,uptake BLOOD,3 h,0.92 ± 0.09 % ID/g
same,uptake BRAIN,3 h,0.07 ± 0.01 % ID/g
same,uptake HEART,3 h,0.4 ± 0.04 % ID/g
same,uptake KIDNEY,3 h,0.8 ± 0.1 % ID/g
same,uptake LIVER,3 h,0.9 ± 0.1 % ID/g
same,uptake TUMOUR,3 h,6.0 ± 0.4 % ID/g
same,tumour standardized uptake value (SUVt),6 h,12 ± 1
same,Uptake Lung,6 h,0.47 ± 0.11 % ID/g
same,uptake BLOOD,6 h,0.58 ± 0.14 % ID/g
same,uptake BRAIN,6 h,0.04 ± 0.01 % ID/g
same,uptake HEART,6 h,0.26 ± 0.06 % ID/g
same,uptake KIDNEY,6 h,0.5 ± 0.1 % ID/g
same,uptake LIVER,6 h,0.6 ± 0.1 % ID/g
same,uptake TUMOUR,6 h,5.9 ± 0.7 % ID/g
same,tumour standardized uptake value (SUVt),24 h,37 ± 9
same,Uptake Lung,24 h,0.03 ± 0.02 % ID/g
same,uptake BLOOD,24 h,0.03 ± 0.01 % ID/g
same,uptake BRAIN,24 h,0.01 % ID/g
same,uptake HEART,24 h,0.04 ± 0.01 % ID/g
same,uptake KIDNEY,24 h,0.03 ± 0.01 % ID/g
same,uptake LIVER,24 h,0.12 ± 0.02 % ID/g
same,uptake TUMOUR,24 h,3.2 ± 0.9 % ID/g
same,tumour standardized uptake value (SUVt),48 h,22 ± 5
same,Uptake Lung,48 h,0.04 ± 0.01 % ID/g
same,uptake BRAIN,48 h,0.01 % ID/g
same,uptake HEART,48 h,0.03 ± 0.01 % ID/g
same,uptake KIDNEY,48 h,0.03 ± 0.01 % ID/g
same,uptake LIVER,48 h,0.08 ± 0.02 % ID/g
same,uptake TUMOUR,48 h,2.2 ± 0.4 % ID/g
same,tumour standardized uptake value (SUVt),72 h,18 ± 12
same,Uptake Lung,72 h,0.04 ± 0.04 % ID/g
same,uptake BLOOD,72 h,0.02 ± 0.01 % ID/g
same,uptake BRAIN,72 h,0.01 % ID/g
same,uptake HEART,72 h,0.06 ± 0.02 % ID/g
same,uptake KIDNEY,72 h,0.02 ± 0.02 % ID/g
same,uptake LIVER,72 h,0.04 ± 0.01 % ID/g
same,uptake TUMOUR,72 h,1.4 ± 0.3 % ID/g
